Assay results from patent US10786521B2, “Methods and compositions for treatment of COPD diseases” (Shanghai KE Pharmaceutical Co., LTD, priority 2014, dated 2020).

What was measured:
[1] = system: cytosolic calcium in primary airway smooth muscle cells; assay: Calcium image (Fluo-4) of primary airway smooth muscle cells stimulated with acetylcholine; type: cell-based; conditions: 10 μM compound, then 100 μM acetylcholine; around 16 to 18 minutes
Protocol: Primary airway smooth muscle cells were stimulated with 100 μM acetylcholine (ACh) (upper panels), resulting elevation and maintenance of calcium signals (arrow heads indicate typical alteration of the cells) for 8 minutes. After washing out ACh, new buffer containing 10 μM Kudinoside D was added, and then stimulated with 100 μM acetylcholine.
Calcium image (1-3): Ca^2+ signal was measured by recording 488 nm laser excited Fluo-4 fluorescence with a laser confocal microscope (FV-1000, Olympus). After 3 times washing with D-Hanks solution, primary cultured airway smooth muscle cells were loaded with 2.5 μM Fluo-4 AM and 0.02% pluronic acid (F127) in D-Hanks for 30 min at room temperature. Then washed 3 times with D-Hanks, incubated in H-T buffer at 37° C. for 40 min. Ca^2+ signal was measured by recording 488 nm laser excited Fluo-4 fluorescence with a laser confocal microscope (FV-1000, Olympus).

[2] = system: permeable (skinned) airway smooth muscle strips; assay: Ca2+-induced sustained contraction of alpha-toxin permeabilized bronchial ring at constant calcium; type: cell-based, C57BL/6J mice; conditions: pCa 4.5 elicited contraction
Protocol: To assess the requirement of calcium reduction for kudinoside-mediated relaxation, smooth muscle tissues permeable were made. Briefly, the fresh bronchial ring were separated by sharp dissection from C57BL/6J mice. Following incubation for 10 minutes in H-T buffer, the muscle strips were treated for 5 minutes in Ca^2+-free H-T buffer and for 5 minutes in buffer A (30 mmol/L TES, 0.5 mmol/L dithiothreitol, 50 mmol/L KCl, 5 mmol/L K2EGTA, 150 mmol/L sucrose, pH 7.4), and then were subsequently permeabilized in α-toxin (16,000 units/mL; Sigma) in buffer A for 40 minutes at room temperature.
Treatment with […] ionomycin (Sigma) in buffer A for 10 minutes was used to deplete Ca^2+ stores. Permeable tissues were washed in pCa 9.0 solution (20 mmol/L TES, 4 mmol/L K2EGTA, 5.83 mmol/L MgCl2, 7.56 mmol/L potassium propionate, 3.9 mmol/L Na2ATP, 0.5 mmol/L dithioerythritol, 16.2 mmol/L phosphocreatine, 15 U/mL creatine kinase, pH 6.9), followed by incubation in pCa 4.5 solution (20 mmol/L TES, 4 mmol/L CaEGTA, 5.66 mmol/L MgCl2, 7.53 mmol/L potassium propionate, 3.9 mmol/L Na2ATP, 0.5 mmol/L dithioerythritol, 16.2 mmol/L phosphocreatine, 15 U/mL creatine kinase, pH 6.9) to elicit a sustained Ca^2+-induced contraction. After wash out the solution, permeable muscle strips were then incubated with pCa 5.0 solution and relaxed by adding Kudinoside D dissolved in pCa 5.0 solution.

Question: How did the “cytosolic calcium signal after acetylcholine stimulation” value [1] turn out when `C[C@@H]1O[C@@H](O[C@H]2[C@H](O[C@H]3CC[C@@]4(C)C(CC[C@]5(C)C4C=CC4=C6[C@]7(CC[C@](C)(OC7=O)[C@@]6(C)O)CC[C@]45C)C3(C)C)OC[C@H](O)[C@@H]2O[C@@H]2O[C@H](CO)[C@@H](O)[C@H](O)[C@H]2O)[C@H](O)[C@H](O)[C@H]1O` (some centres unmarked) [Kudinoside D] was run?
Answer: The value was “significant reduction of calcium”.

Question: And the “relaxation of sustained Ca2+-induced contraction of skinned muscle strip” value [2]?
Answer: Its value is “could not relax this sustained contraction, and contrarily slightly enhanced it”.
